# Test system: rabbits
# Experiment: Rabbit pyrogen test (USP<151>)
# Conditions: CRX-601 per kg animal body weight
structure (smiles),measurement,value
CCCCCCCCCCC[C@H](CC(=O)NC1C(OC(=O)C[C@@H](CCCCCCCCCCC)OCCCCCCCCCC)[C@H](OP(=O)(O)O)C(CO)O[C@H]1OC[C@H](NC(=O)C[C@@H](CCCCCCCCCCC)OCCCCCCCCCC)C(=O)O)OCCCCCCCCCC (stereo partly shown) [free CRX-601],Max non-pyrogenic dose,0.001 to 0.002 µg/kg

# Reference: patent publication US20180318415A1, “NOVEL ADJUVANT FORMULATIONS” (GLAXOSMITHKLINE BIOLOGICALS, SA, priority 2015, published 2018)
